Experimental data reported in US8044079B2, “Substituted oxindole derivatives, medicaments containing said derivatives and use thereof” (Abbott GmbH & Co. KG, priority 2005, dated 2011).

The compounds below were run against T1, human vasopressin V1b receptor (Homo sapiens, UniProt P47901) (assay: Vasopressin V1b receptor binding test). Conditions: membranes of CHO-K1 cells with human V1b receptor, displacement of 1.5 nM 3H-AVP; for compounds with more than one stereogenic center the diastereomer with greater affinity.
T1 construct: expressed in transfected cells; host or cells: CHO-K1 (cell line hV1b_3H2_CHO), membrane preparation
T1 sequence (P47901 1-424): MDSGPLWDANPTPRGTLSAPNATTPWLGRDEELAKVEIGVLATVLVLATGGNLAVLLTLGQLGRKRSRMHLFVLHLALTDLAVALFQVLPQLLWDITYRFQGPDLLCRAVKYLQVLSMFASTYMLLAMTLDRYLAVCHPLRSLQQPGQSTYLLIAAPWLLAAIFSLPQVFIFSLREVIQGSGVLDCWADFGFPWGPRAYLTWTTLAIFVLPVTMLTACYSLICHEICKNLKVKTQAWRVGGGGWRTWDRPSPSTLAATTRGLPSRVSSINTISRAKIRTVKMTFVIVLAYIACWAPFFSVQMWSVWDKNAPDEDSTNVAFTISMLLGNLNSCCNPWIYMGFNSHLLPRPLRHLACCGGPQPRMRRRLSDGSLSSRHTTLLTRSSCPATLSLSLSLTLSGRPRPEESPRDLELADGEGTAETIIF
Description: Vasopressin V1b Receptor Binding Test:
The test substances were dissolved at a concentration of 10^−2 M in DMSO, and were further diluted to 5×10^−4 M to 5×10^−9 M in DMSO. This DMSO predilution series was diluted 1:10 with test buffer. In the test assay the substance concentration was further diluted to 1:5 (2% DMSO in the assay).
The membrane pellet was homogenized again as described and centrifuged, and was then taken up in 50 mM tris-HCl at pH 7.4, homogenized, and frozen in aliquots at −190° C. and stored in liquid nitrogen.
The incubation buffer was 50 mM tris, 10 mM MgCl2, and 0.1% BSA at pH 7.4. […] The nonspecific binding was determined using 1 μM AVP (Bachem #H1780). All determinations were performed in triplicate. After incubation (60 minutes at room temperature), the free radioligand was filtered off by vacuum filtration (Skatron 7000 cell harvester) through Wathman GF/B fiberglass filter mats, and the filters were transferred to scintillation vessels. The liquid scintillation measurement was conducted in a Model 2000 or 2200CA TriCarb unit (Packard). The measured cpm was converted to dpm using a standard quench series.
The binding parameters were calculated by nonlinear regression in SAS.
The affinities of the compounds according to the invention for human vasopressin receptor V1b were measured according to the above test, and the affinity constants (Ki) were determined.

Which Ki does the source give for `COCCN(C)Cc1ccc(OC)c(C2(N3CCC[C@H]3c3ncco3)C(=O)N(S(=O)(=O)c3ccc(OC)cc3)c3cc(Cl)ccc32)c1` (stereo partly drawn) [Example 34, 6-Chloro-1-(4-methoxybenzenesulfonyl)-3-(2-methoxy-5-{[(2-methoxyethyl)methylamino]methyl}phenyl)-3-((S)-2-oxazol-2-yl-pyrrolidin-1-yl)-1,3-dihydroindol-2-one] here?
The Ki was 100 to 1000 nM.

Which Ki does the source give for `COc1ccc(S(=O)(=O)N2C(=O)C(c3cc(CN4CCN(C)CC4)ccc3OC)(N3CCC[C@H]3c3ncco3)c3ccc(Cl)cc32)cc1` (stereo partly drawn) [Example 35, 6-Chloro-1-(4-methoxybenzenesulfonyl)-3-[2-methoxy-5-(4-methylpiperazin-1-ylmethyl)phenyl]-3-((S)-2-oxazol-2-yl-pyrrolidin-1-yl)-1,3-dihydroindol-2-one] here?
The Ki was 100 to 1000 nM.

Which Ki does the source give for `COc1ccc(S(=O)(=O)N2C(=O)C(c3cc(CN4CCOCC4)ccc3OC)(N3CCC[C@H]3c3ncco3)c3ccc(Cl)cc32)cc1` (stereo partly drawn) [Example 37, 6-Chloro-1-(4-methoxybenzenesulfonyl)-3-(2-methoxy-5-morpholin-4-ylmethylphenyl)-3-((S)-2-oxazol-2-yl-pyrrolidin-1-yl)-1,3-dihydroindol-2-one] here?
The Ki was 100 to 1000 nM.

With `COc1ccc(S(=O)(=O)N2C(=O)C(c3cc(CN4CCC4)ccc3OC)(N3CCC[C@H]3c3ncco3)c3ccc(Cl)cc32)cc1` (stereo partly drawn) [Example 38, 3-(5-Azetidin-1-ylmethyl-2-methoxyphenyl)-6-chloro-1-(4-methoxybenzenesulfonyl)-3-((S)-2-oxazol-2-yl-pyrrolidin-1-yl)-1,3-dihydroindol-2-one] as the compound, how does the Ki read?
The Ki was 100 to 1000 nM.

With `COc1ccc(S(=O)(=O)N2C(=O)C(c3cc(CN4CCCC4)ccc3OC)(N3CCC[C@H]3c3ncco3)c3ccc(Cl)cc32)cc1` (stereo partly drawn) [Example 39, 6-Chloro-1-(4-methoxybenzenesulfonyl)-3-(2-methoxy-5-pyrrolidin-1-ylmethylphenyl)-3-((S)-2-oxazol-2-yl-pyrrolidin-1-yl)-1,3-dihydroindol-2-one] as the compound, how does the Ki read?
Its Ki is 100 to 1000 nM.

Which Ki does the source give for `COc1ccc(S(=O)(=O)N2C(=O)C(c3cc(CN4CCCCC4)ccc3OC)(N3CCC[C@H]3c3ncco3)c3ccc(Cl)cc32)cc1` (stereo partly drawn) [Example 40, 6-Chloro-1-(4-methoxybenzenesulfonyl)-3-(2-methoxy-5-piperidin-1-ylmethylphenyl)-3-((S)-2-oxazol-2-yl-pyrrolidin-1-yl)-1,3-dihydroindol-2-one] here?
The Ki was 100 to 1000 nM.

With `COc1ccc(S(=O)(=O)N2C(=O)C(c3ccc(CN(C)C)cc3OC)(N3CCC[C@H]3c3ncco3)c3cc(C#N)ccc32)cc1` (stereo partly drawn) [Example 41, 5-Cyano-3-(4-dimethylaminomethyl-2-methoxyphenyl)-1-(4-methoxybenzenesulfonyl)-3-((S)-2-oxazol-2-yl-pyrrolidin-1-yl)-1,3-dihydroindol-2-one] as the compound, how does the Ki read?
Its Ki is 10 to 100 nM.

How did the Ki turn out when `COc1ccc(S(=O)(=O)N2C(=O)C(c3ccc(CN4CCN(C)CC4)cc3OC)(N3CCC[C@H]3c3ncco3)c3cc(C#N)ccc32)cc1` (stereo partly drawn) [Example 42, 5-Cyano-1-(4-methoxybenzenesulfonyl)-3-[2-methoxy-4-(4-methylpiperazin-1-ylmethyl)phenyl]-3-((S)-2-oxazol-2-yl-pyrrolidin-1-yl)-1,3-dihydroindol-2-one] was run?
Its Ki is 10 to 100 nM.

`COc1ccc(S(=O)(=O)N2C(=O)C(c3ccc(CN4CCOCC4)cc3OC)(N3CCC[C@H]3c3ncco3)c3cc(C#N)ccc32)cc1` (stereo partly drawn) [Example 43, 5-Cyano-1-(4-methoxybenzenesulfonyl)-3-(2-methoxy-4-morpholin-4-ylmethylphenyl)-3-((S)-2-oxazol-2-yl-pyrrolidin-1-yl)-1,3-dihydroindol-2-one] was tested. Which Ki did it give?
The Ki was 100 to 1000 nM.

How did the Ki turn out when `CNCc1ccc(OC)c(C2(N3CCC[C@H]3c3ncco3)C(=O)N(S(=O)(=O)c3ccc(OC)cc3)c3ccc(C#N)cc32)c1` (stereo partly drawn) [Example 45, 5-Cyano-1-(4-methoxybenzenesulfonyl)-3-(2-methoxy-5-methylaminomethylphenyl)-3-((S)-2-oxazol-2-yl-pyrrolidin-1-yl)-1,3-dihydroindol-2-one] was run?
The Ki was under 10 nM.

With `COc1ccc(S(=O)(=O)N2C(=O)C(c3cc(CN(C)C)ccc3OC)(N3CCC[C@H]3c3ncco3)c3cc(C#N)ccc32)cc1` (stereo partly drawn) [Example 46, 5-Cyano-3-(5-dimethylaminomethyl-2-methoxyphenyl)-1-(4-methoxybenzenesulfonyl)-3-((S)-2-oxazol-2-yl-pyrrolidin-1-yl)-1,3-dihydroindol-2-one] as the compound, how does the Ki read?
The Ki was 10 to 100 nM.

`CCNCc1ccc(OC)c(C2(N3CCC[C@H]3c3ncco3)C(=O)N(S(=O)(=O)c3ccc(OC)cc3)c3ccc(C#N)cc32)c1` (stereo partly drawn) [Example 47, 5-Cyano-3-(5-ethylaminomethyl-2-methoxyphenyl)-1-(4-methoxybenzenesulfonyl)-3-((S)-2-oxazol-2-yl-pyrrolidin-1-yl)-1,3-dihydroindol-2-one] was tested. Which Ki did it give?
The Ki was under 10 nM.

For `CCN(C)Cc1ccc(OC)c(C2(N3CCC[C@H]3c3ncco3)C(=O)N(S(=O)(=O)c3ccc(OC)cc3)c3ccc(C#N)cc32)c1` (stereo partly drawn) [Example 48, 5-Cyano-3-{5-[(ethylmethylamino)methyl]-2-methoxyphenyl}-1-(4-methoxybenzenesulfonyl)-3-((S)-2-oxazol-2-yl-pyrrolidin-1-yl)-1,3-dihydroindol-2-one], which Ki is on record?
Its Ki is 10 to 100 nM.

`CCN(CC)Cc1ccc(OC)c(C2(N3CCC[C@H]3c3ncco3)C(=O)N(S(=O)(=O)c3ccc(OC)cc3)c3ccc(C#N)cc32)c1` (stereo partly drawn) [Example 49, 5-Cyano-3-(5-diethylaminomethyl-2-methoxyphenyl)-1-(4-methoxybenzenesulfonyl)-3-((S)-2-oxazol-2-yl-pyrrolidin-1-yl)-1,3-dihydroindol-2-one] was tested. Which Ki did it give?
The Ki was 10 to 100 nM.

Which Ki does the source give for `CCCNCc1ccc(OC)c(C2(N3CCC[C@H]3c3ncco3)C(=O)N(S(=O)(=O)c3ccc(OC)cc3)c3ccc(C#N)cc32)c1` (stereo partly drawn) [Example 50, 5-Cyano-1-(4-methoxybenzenesulfonyl)-3-(2-methoxy-5-propylaminomethylphenyl)-3-((S)-2-oxazol-2-yl-pyrrolidin-1-yl)-1,3-dihydroindol-2-one] here?
The Ki was under 10 nM.

Which Ki does the source give for `COc1ccc(S(=O)(=O)N2C(=O)C(c3cc(CNC(C)C)ccc3OC)(N3CCC[C@H]3c3ncco3)c3cc(C#N)ccc32)cc1` (stereo partly drawn) [Example 52, 5-Cyano-3-[5-(isopropylaminomethyl)-2-methoxyphenyl]-1-(4-methoxybenzenesulfonyl)-3-((S)-2-oxazol-2-yl-pyrrolidin-1-yl)-1,3-dihydroindol-2-one] here?
Its Ki is 10 to 100 nM.

For `COc1ccc(S(=O)(=O)N2C(=O)C(c3cc(CN(C)C(C)C)ccc3OC)(N3CCC[C@H]3c3ncco3)c3cc(C#N)ccc32)cc1` (stereo partly drawn) [Example 53, 5-Cyano-3-{5-[(isopropylmethylamino)methyl]-2-methoxyphenyl}-1-(4-methoxybenzenesulfonyl)-3-((S)-2-oxazol-2-yl-pyrrolidin-1-yl)-1,3-dihydroindol-2-one], which Ki is on record?
Its Ki is 10 to 100 nM.

For `COc1ccc(S(=O)(=O)N2C(=O)C(c3cc(CNCCO)ccc3OC)(N3CCC[C@H]3c3ncco3)c3cc(C#N)ccc32)cc1` (stereo partly drawn) [Example 54, 5-Cyano-3-{5-[(2-hydroxyethylamino)methyl]-2-methoxyphenyl}-1-(4-methoxybenzenesulfonyl)-3-((S)-2-oxazol-2-yl-pyrrolidin-1-yl)-1,3-dihydroindol-2-one], which Ki is on record?
The Ki was 10 to 100 nM.

How did the Ki turn out when `COCCN(C)Cc1ccc(OC)c(C2(N3CCC[C@H]3c3ncco3)C(=O)N(S(=O)(=O)c3ccc(OC)cc3)c3ccc(C#N)cc32)c1` (stereo partly drawn) [Example 55, 5-Cyano-1-(4-methoxybenzenesulfonyl)-3-(2-methoxy-5-{[(2-methoxyethyl)methylamino]methyl}phenyl)-3-((S)-2-oxazol-2-yl-pyrrolidin-1-yl)-1,3-dihydroindol-2-one] was run?
The Ki was 10 to 100 nM.
